US20250368628A1, “METHODS AND COMPOUNDS FOR MODULATING INHERITED GENETIC DISEASES” (Design Therapeutics, Inc., priority 2022, published 2025)

What was measured:
[1] = test system: Myotonic Dystrophy 1 affected patient fibroblasts (Coriel GM04602; 1600 CTG repeats); assay: DM1 foci reduction assay (EC50 assay; CAG10-Cy3 FISH, foci per nucleus); assay type: cell-based; settings: Homo sapiens, Fibroblast; DM1 patient fibroblasts, 48 h treatment, foci per nucleus; read-out: DM1 EC50, 48 h
Procedure, shortened: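 GM04602 DM1 patient fibroblasts (1600 CTG repeats) seeded 24 h, then treated 48 h at 37 °C with an 8-point 1:3 dose series from 3 μM. Cells PFA-fixed, ethanol-permeabilized and hybridized overnight with 5 nM CAG10-Cy3 probe, DAPI counterstained. Imaged at 20×, 4 fields per well, as average foci per nucleus.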

F35T cells = assay: Foci reduction in FECD (CAG10-Cy3 FISH, foci per nucleus); assay type: cell-based; settings: F35T cells, 48 h treatment, foci per nucleus; read-out: FECD EC50, 48 h
Procedure, shortened: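 F35T cells, 5000 per well, were treated for 48 h at 37 °C, 5% CO2 in an 8-point dose response. Cells were then fixed in 4% PFA, permeabilized in 70% ethanol and hybridized overnight at 37 °C with a CAG10-Cy3 probe in 30% formamide/2×SSC. After DAPI staining, imaging gave foci per nucleus.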

SMILES | EC50 [1] [nM] | EC50 (F35T cells) [nM]
CCN(CC)CCCC[C@H](NC(=O)c1ccc(C(C)(C)C)cc1)C(=O)NCCOCCOCCOCCOCCOCCNC(=O)CCNC(=O)c1nc(NC(=O)c2cc(NC(=O)CCNC(=O)c3nc(NC(=O)CCCNC(=O)c4cc(NC(=O)c5nc(NC(=O)CCNC(=O)c6cc(NC(=O)c7nccn7C)cn6C)cn5C)cn4C)cn3C)cn2C)cn1C [Compound B-92] | 100 to 500 | 500 to 1000
CCN(CC)CCCC[C@H](NC(=O)c1cccnc1)C(=O)NCCOCCOCCOCCOCCOCCNC(=O)CCNC(=O)c1nc(NC(=O)c2cc(NC(=O)CCNC(=O)c3nc(NC(=O)CCCNC(=O)c4cc(NC(=O)c5nc(NC(=O)CCNC(=O)c6cc(NC(=O)c7nccn7C)cn6C)cn5C)cn4C)cn3C)cn2C)cn1C [Compound B-94] | 500 to 1000 | 100 to 500
CCN(CC)CCCC[C@H](NC(=O)C1CCNCC1)C(=O)NCCOCCOCCOCCOCCOCCNC(=O)CCNC(=O)c1nc(NC(=O)c2cc(NC(=O)CCNC(=O)c3nc(NC(=O)CCCNC(=O)c4cc(NC(=O)c5nc(NC(=O)CCNC(=O)c6cc(NC(=O)c7nccn7C)cn6C)cn5C)cn4C)cn3C)cn2C)cn1C [Compound B-95] | 500 to 1000 | > 1000
Cn1cc(NC(=O)c2nc(NC(=O)CCNC(=O)c3cc(NC(=O)c4nccn4C)cn3C)cn2C)cc1C(=O)NCCCC(=O)Nc1cn(C)c(C(=O)NCCC(=O)Nc2cc(C(=O)Nc3cn(C)c(C(=O)NCCCO)n3)n(C)c2)n1 [Compound B-105] | 100 to 500 | 100 to 500
Cn1cc(NC(=O)c2nc(NC(=O)CCNC(=O)c3cc(NC(=O)c4nccn4C)cn3C)cn2C)cc1C(=O)NCCCC(=O)Nc1cn(C)c(C(=O)NCCC(=O)Nc2cc(C(=O)Nc3cn(C)c(C(=O)NCCOCCOCCOCCN4CCC(C#CC#CC5CCNCC5)CC4)n3)n(C)c2)n1 [Compound B-107] | 100 to 500 | 100 to 500
CN(C)CCCNC(=O)c1nc(NC(=O)c2cc(NC(=O)CCNC(=O)c3nc(NC(=O)CCCNC(=O)c4cc(NC(=O)c5nc(NC(=O)CCNC(=O)c6cc(NC(=O)c7nccn7C)cn6C)cn5C)cn4C)cn3C)cn2C)cn1C [Compound B-108] | 100 to 500 | 100 to 500
CN(CCCNC(=O)c1cccc(C(=O)O)c1)CCCNC(=O)c1nc(NC(=O)c2cc(NC(=O)CCNC(=O)c3nc(NC(=O)CCCNC(=O)c4cc(NC(=O)c5nc(NC(=O)CCNC(=O)c6cc(NC(=O)c7nccn7C)cn6C)cn5C)cn4C)cn3C)cn2C)cn1C [Compound B-109] | 100 to 500 | 100 to 500
CC(Nc1cc(C(=O)NCCC(=O)Nc2cn(C)c(C(=O)Nc3cc(C(=O)NCCCC(=O)Nc4cn(C)c(C(=O)Nc5cc(C(=O)NCCC(=O)Nc6cn(C)c(C(=O)NCCC(=O)NCCOCCOCCOCCOCCOCCNC(=O)[C@H](CO)NC(=O)OC(C)(C)C)n6)n(C)c5)n4)n(C)c3)n2)n(C)c1)c1nccn1C (stereo partly shown) [Compound B-110] | 500 to 1000 | 100 to 500
CC(Nc1cc(C(=O)NCCC(=O)Nc2cn(C)c(C(=O)Nc3cc(C(=O)NCCCC(=O)Nc4cn(C)c(C(=O)Nc5cc(C(=O)NCCC(=O)Nc6cn(C)c(C(=O)NCCC(=O)NCCOCCOCCOCCOCCOCCNC(=O)[C@@H](N)CO)n6)n(C)c5)n4)n(C)c3)n2)n(C)c1)c1nccn1C (stereo partly shown) [Compound B-111] | 500 to 1000 | > 1000
Cn1cc(NC(=O)c2nc(NC(=O)CCNC(=O)c3cc(NC(=O)c4nccn4C)cn3C)cn2C)cc1C(=O)NCCCC(=O)Nc1cn(C)c(C(=O)NCCC(=O)Nc2cc(C(=O)Nc3cn(C)c(C(=O)NCCC(=O)NCCCCC#N)n3)n(C)c2)n1 [Compound B-113] | < 100 | < 100
CC(=O)N1CCC(CN2CCN(C(=O)CCNC(=O)c3nc(NC(=O)c4cc(NC(=O)CCNC(=O)c5nc(NC(=O)CCCNC(=O)c6cc(NC(=O)c7nc(NC(=O)CCNC(=O)c8cc(NC(=O)c9nccn9C)cn8C)cn7C)cn6C)cn5C)cn4C)cn3C)CC2)CC1 [Compound B-115] | 100 to 500 | 500 to 1000
Cn1cc(NC(=O)c2nc(NC(=O)CCNC(=O)c3cc(NC(=O)c4nccn4C)cn3C)cn2C)cc1C(=O)NCCCC(=O)Nc1cn(C)c(C(=O)NCCC(=O)Nc2cc(C(=O)Nc3cn(C)c(C(=O)NCCC(=O)N4CCN(C5CCNCC5)CC4)n3)n(C)c2)n1 [Compound B-117] | 100 to 500 | 500 to 1000
CC(=O)N1CCC(N2CCN(C(=O)CCNC(=O)c3nc(NC(=O)c4cc(NC(=O)CCNC(=O)c5nc(NC(=O)CCCNC(=O)c6cc(NC(=O)c7nc(NC(=O)CCNC(=O)c8cc(NC(=O)c9nccn9C)cn8C)cn7C)cn6C)cn5C)cn4C)cn3C)CC2)CC1 [Compound B-119] | 100 to 500 | 500 to 1000
CN1CCC(N2CCN(C(=O)CCNC(=O)c3nc(NC(=O)c4cc(NC(=O)CCNC(=O)c5nc(NC(=O)CCCNC(=O)c6cc(NC(=O)c7nc(NC(=O)CCNC(=O)c8cc(NC(=O)c9nccn9C)cn8C)cn7C)cn6C)cn5C)cn4C)cn3C)CC2)CC1 [Compound B-120] | 500 to 1000 | > 1000
CC(=O)N1CCC(C#CC#CC2CCN(CCOCCOCCOCCNC(=O)CCNC(=O)c3nc(NC(=O)c4cc(NC(=O)CCNC(=O)c5nc(NC(=O)CCCNC(=O)c6cc(NC(=O)c7nc(NC(=O)CCNC(=O)c8cc(NC(=O)c9nccn9C)cn8C)cn7C)cn6C)cn5C)cn4C)cn3C)CC2)CC1 [Compound B-121] | 100 to 500 | 100 to 500
CC(C)C(=O)N1CCC(C#CC#CC2CCN(CCOCCOCCOCCNC(=O)CCNC(=O)c3nc(NC(=O)c4cc(NC(=O)CCNC(=O)c5nc(NC(=O)CCCNC(=O)c6cc(NC(=O)c7nc(NC(=O)CCNC(=O)c8cc(NC(=O)c9nccn9C)cn8C)cn7C)cn6C)cn5C)cn4C)cn3C)CC2)CC1 [Compound B-122] | 100 to 500 | 100 to 500
Cn1cc(NC(=O)c2nc(NC(=O)CCNC(=O)c3cc(NC(=O)c4nccn4C)cn3C)cn2C)cc1C(=O)NCCCC(=O)Nc1cn(C)c(C(=O)NCCC(=O)Nc2cc(C(=O)Nc3cn(C)c(C(=O)NCCC(=O)NCCOCCOCCOCCN4CCC(C#CC#CC5CCN(C(=O)C(C)(C)C)CC5)CC4)n3)n(C)c2)n1 [Compound B-123] | < 100 | 100 to 500
CC(C)N1CCC(C#CC#CC2CCN(CCOCCOCCOCCNC(=O)CCNC(=O)c3nc(NC(=O)c4cc(NC(=O)CCNC(=O)c5nc(NC(=O)CCCNC(=O)c6cc(NC(=O)c7nc(NC(=O)CCNC(=O)c8cc(NC(=O)c9nccn9C)cn8C)cn7C)cn6C)cn5C)cn4C)cn3C)CC2)CC1 [Compound B-124] | 100 to 500 | 500 to 1000
CN1CCC(C#CC#CC2CCN(CCOCCOCCOCCNC(=O)CCNC(=O)c3nc(NC(=O)c4cc(NC(=O)CCNC(=O)c5nc(NC(=O)CCCNC(=O)c6cc(NC(=O)c7nc(NC(=O)CCNC(=O)c8cc(NC(=O)c9nccn9C)cn8C)cn7C)cn6C)cn5C)cn4C)cn3C)CC2)CC1 [Compound B-125] | 100 to 500 | 100 to 500
Cn1cc(NC(=O)c2nc(NC(=O)CCNC(=O)c3cc(NC(=O)c4nccn4C)cn3C)cn2C)cc1C(=O)NCCCC(=O)Nc1cn(C)c(C(=O)NCCC(=O)Nc2cc(C(=O)Nc3cn(C)c(C(=O)NCCC(=O)N4CCC(C#CC#CC5CCNCC5)CC4)n3)n(C)c2)n1 [Compound B-126, 1-Methyl-4-(3-{[1-methyl-4-(1-methylimidazole-2-amido)pyrrol-2-yl]formamido}propanamido)-N-(1-methyl-5-{[3-({1-methyl-2-[(2-{[1-methyl-5-({1-methyl-2-[(3-oxo-3-{4-[4-(piperidin-4-yl)buta-1,3-diyn-1-yl]piperidin-1-yl}propyl)carbamoyl]imidazol-4-yl}carbamoyl)pyrrol-3-yl]carbamoyl}ethyl)carbamoyl]imidazol-4-yl}carbamoyl)propyl]carbamoyl}pyrrol-3-yl)imidazole-2-carboxamide] | < 100 | < 100
Cn1cc(NC(=O)c2nc(NC(=O)CCNC(=O)c3cc(NC(=O)c4nccn4C)cn3C)cn2C)cc1C(=O)NCCCC(=O)Nc1cn(C)c(C(=O)NCCC(=O)Nc2cc(C(=O)Nc3cn(C)c(C(=O)NCCC(=O)N4CCC(CN5CCNCC5)CC4)n3)n(C)c2)n1 [Compound B-127] | 100 to 500 | 100 to 500
CC(=O)N1CCN(CC2CCN(C(=O)CCNC(=O)c3nc(NC(=O)c4cc(NC(=O)CCNC(=O)c5nc(NC(=O)CCCNC(=O)c6cc(NC(=O)c7nc(NC(=O)CCNC(=O)c8cc(NC(=O)c9nccn9C)cn8C)cn7C)cn6C)cn5C)cn4C)cn3C)CC2)CC1 [Compound B-128] | 100 to 500 | < 100
CN1CCN(C2CCN(C(=O)CCNC(=O)c3nc(NC(=O)c4cc(NC(=O)CCNC(=O)c5nc(NC(=O)CCCNC(=O)c6cc(NC(=O)c7nc(NC(=O)CCNC(=O)c8cc(NC(=O)c9nccn9C)cn8C)cn7C)cn6C)cn5C)cn4C)cn3C)CC2)CC1 [Compound B-131] | 100 to 500 | < 100
Cn1cc(NC(=O)c2nc(NC(=O)CCNC(=O)c3cc(NC(=O)c4nccn4C)cn3C)cn2C)cc1C(=O)NCCCC(=O)Nc1cn(C)c(C(=O)NCCC(=O)Nc2cc(C(=O)Nc3cn(C)c(C(=O)NCCC(=O)NCC#CC#Cc4ccc(N)cc4)n3)n(C)c2)n1 [Compound B-132] | < 100 | < 100
Cn1cc(NC(=O)c2nc(NC(=O)CCNC(=O)c3cc(NC(=O)c4nccn4C)cn3C)cn2C)cc1C(=O)NCCCC(=O)Nc1cn(C)c(C(=O)NCCC(=O)Nc2cc(C(=O)Nc3cn(C)c(C(=O)NCCC(=O)NCC#CC#Cc4ccccc4)n3)n(C)c2)n1 [Compound B-134] | < 100 | < 100
CN(C)c1ccc(C#CCNC(=O)CCNC(=O)c2nc(NC(=O)c3cc(NC(=O)CCNC(=O)c4nc(NC(=O)CCCNC(=O)c5cc(NC(=O)c6nc(NC(=O)CCNC(=O)c7cc(NC(=O)c8nccn8C)cn7C)cn6C)cn5C)cn4C)cn3C)cn2C)cc1 [Compound B-135] | < 100 | 100 to 500
